For one data set, the system named is Cav2.2 channel. Particulars: cited from earlier work.
Data set [1] concerns CFA-injected mice (C57 Bl6). Particulars: mouse, in vivo.
For data set [2], the target named is T1, N-type calcium currents (Cav2.2), mouse DRG neurons (Mus musculus, UniProt O55017). It counts as cell-based.
In data set [3] the target is T1, N-type calcium currents (Cav2.2), mouse DRG neurons. It counts as cell-based. The source holds these as a separate data set.
The next data set concerns mice (C57 Bl6). Conditions: mouse, in vivo, sc.
The test system of data set [4] is naïve mice (C57Bl/6j). Conditions: mouse, in vivo, sc, 2 mg/kg.
In data set [5] the test system is N-type VGCCs over the P/Q-type (Cav2.1). Conditions: cited from earlier work.
Data set [6] relates to CFA-injected mice (C57 Bl6). Conditions: mouse, in vivo. This is another data set of the same source.
Data set [7] deals with naïve mice (C57Bl/6j). Conditions: mouse, in vivo, sc, 2 mg/kg. The source holds these as a separate data set.
A further data set deals with rat. Particulars: in vivo, iv; cited from earlier work.
Data set [8] has as its system excitatory monosynaptic transmission in the dorsal horn of the spinal cord. Particulars: cited from earlier work.
Data set [9] concerns N-type calcium channels with auxiliary subunits. Conditions: cited from earlier work.

“Also recorded” adds a separate entry of the source. Positions of bridges follow the written chain, without caps; N, C: chain ends. Residues, ends and D or L forms follow the SMILES beside them.

T1 sequence (O55017 whole entry): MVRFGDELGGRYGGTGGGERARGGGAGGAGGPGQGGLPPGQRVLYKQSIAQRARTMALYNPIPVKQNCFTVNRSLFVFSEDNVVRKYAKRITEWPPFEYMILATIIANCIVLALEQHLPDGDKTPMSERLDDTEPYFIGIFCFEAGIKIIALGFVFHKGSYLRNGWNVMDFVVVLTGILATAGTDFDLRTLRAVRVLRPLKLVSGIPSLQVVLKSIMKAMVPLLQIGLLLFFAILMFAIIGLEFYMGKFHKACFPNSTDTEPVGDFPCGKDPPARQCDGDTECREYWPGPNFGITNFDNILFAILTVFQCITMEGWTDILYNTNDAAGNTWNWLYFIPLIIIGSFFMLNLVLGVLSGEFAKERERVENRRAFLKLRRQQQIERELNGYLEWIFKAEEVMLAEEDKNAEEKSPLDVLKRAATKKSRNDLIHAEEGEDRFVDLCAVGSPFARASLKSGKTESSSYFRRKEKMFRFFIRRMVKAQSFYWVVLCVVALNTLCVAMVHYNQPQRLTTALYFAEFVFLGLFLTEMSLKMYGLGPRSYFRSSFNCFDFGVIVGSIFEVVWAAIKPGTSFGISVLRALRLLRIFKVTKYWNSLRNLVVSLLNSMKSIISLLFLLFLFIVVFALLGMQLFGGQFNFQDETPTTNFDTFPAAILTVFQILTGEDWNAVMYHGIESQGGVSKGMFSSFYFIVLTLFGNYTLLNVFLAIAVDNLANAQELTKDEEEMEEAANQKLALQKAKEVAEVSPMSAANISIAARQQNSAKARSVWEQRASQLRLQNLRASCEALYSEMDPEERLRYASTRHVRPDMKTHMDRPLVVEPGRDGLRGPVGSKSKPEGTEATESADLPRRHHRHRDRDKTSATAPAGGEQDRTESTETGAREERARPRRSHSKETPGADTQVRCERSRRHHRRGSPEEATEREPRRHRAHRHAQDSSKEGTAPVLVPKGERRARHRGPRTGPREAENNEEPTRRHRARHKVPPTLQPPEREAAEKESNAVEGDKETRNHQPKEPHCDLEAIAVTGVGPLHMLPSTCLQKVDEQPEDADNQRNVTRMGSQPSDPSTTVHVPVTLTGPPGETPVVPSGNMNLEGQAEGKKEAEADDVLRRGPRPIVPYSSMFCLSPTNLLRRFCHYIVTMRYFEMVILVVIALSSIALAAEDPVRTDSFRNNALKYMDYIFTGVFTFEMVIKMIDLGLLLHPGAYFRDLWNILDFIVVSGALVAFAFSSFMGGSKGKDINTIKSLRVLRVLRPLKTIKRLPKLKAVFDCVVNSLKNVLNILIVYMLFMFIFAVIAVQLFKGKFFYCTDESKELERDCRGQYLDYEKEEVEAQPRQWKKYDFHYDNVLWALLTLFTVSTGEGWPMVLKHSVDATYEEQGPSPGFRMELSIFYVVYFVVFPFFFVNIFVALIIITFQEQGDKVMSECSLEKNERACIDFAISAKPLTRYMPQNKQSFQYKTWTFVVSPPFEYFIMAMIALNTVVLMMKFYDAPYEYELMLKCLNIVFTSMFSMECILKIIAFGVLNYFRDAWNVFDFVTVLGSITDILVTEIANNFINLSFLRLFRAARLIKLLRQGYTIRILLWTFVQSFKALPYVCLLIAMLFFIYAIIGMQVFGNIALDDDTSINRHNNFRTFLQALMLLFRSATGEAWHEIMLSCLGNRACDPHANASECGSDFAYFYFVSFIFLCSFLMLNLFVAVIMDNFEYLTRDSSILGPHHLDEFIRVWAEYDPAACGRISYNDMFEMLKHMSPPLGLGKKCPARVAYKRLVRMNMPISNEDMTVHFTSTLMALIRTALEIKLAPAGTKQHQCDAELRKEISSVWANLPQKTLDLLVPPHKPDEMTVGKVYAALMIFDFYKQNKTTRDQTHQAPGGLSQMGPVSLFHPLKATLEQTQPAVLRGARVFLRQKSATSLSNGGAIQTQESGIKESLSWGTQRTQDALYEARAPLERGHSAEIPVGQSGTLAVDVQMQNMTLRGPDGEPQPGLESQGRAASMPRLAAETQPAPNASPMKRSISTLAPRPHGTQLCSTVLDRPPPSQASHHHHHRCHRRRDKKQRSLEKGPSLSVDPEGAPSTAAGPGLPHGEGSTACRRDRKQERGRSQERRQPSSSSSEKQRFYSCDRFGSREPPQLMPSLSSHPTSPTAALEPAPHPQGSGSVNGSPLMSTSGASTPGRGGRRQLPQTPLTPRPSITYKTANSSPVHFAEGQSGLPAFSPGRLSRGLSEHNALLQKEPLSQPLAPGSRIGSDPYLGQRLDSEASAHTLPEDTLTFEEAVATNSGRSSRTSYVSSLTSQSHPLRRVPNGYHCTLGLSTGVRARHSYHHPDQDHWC

For the compound `CSCC[C@@H]1NC(=O)[C@H](CC(C)C)NC(=O)[C@H](CCCCN)NC(=O)[C@H](CO)NC(=O)[C@@H]2CSSC[C@@H]3NC(=O)[C@H](CO)NC(=O)CNC(=O)[C@H](CO)NC(=O)[C@H](CSSC[C@H](N)C(=O)N[C@@H](CCCCN)C(=O)N[C@@H](CO)C(=O)N[C@@H](CCCCN)C(=O)NCC(=O)N[C@@H](C)C(=O)N[C@@H](CCCCN)C(=O)N2)NC(=O)[C@H](CSSC[C@@H](C(N)=O)NC(=O)[C@H](CCCNC(=N)N)NC(=O)CNC(=O)[C@H](C(C)C)NC(=O)[C@H]([C@@H](C)O)NC(=O)CNC(=O)[C@H](CO)NC3=O)NC(=O)[C@H](CC(=O)O)NC(=O)[C@H](Cc2ccc(O)cc2)NC1=O` [CVID] (H-CKSKGAKCSKLMYDCCSGSCSGTVGRC-NH2; disulfide 1-16, 8-20, 15-27), the reversibility of inhibition entry in the data set on Cav2.2 channel was “irreversible inhibition”. In addition, the “effect on automated von Frey measure” value in data set [1] was “both measures appeared to be sensitive to subcutaneous injection of CVID; also recorded: partially reversed”. Further, in data set [2], the Recovery from block was -1 ± 5 % of inhibition; the “recovery from block, 30 min” value is “no recovery was observed”; the “reversibility of ICa block” value is “completely irreversible; also recorded: no recovery was observed”. Also, in data set [3], the “Log [IC50]” value is reported as -7.12 ± 0.04, the “Maximal Inhibition of ICa” value is 52 ± 2 % of total, the “block of high-voltage activated ICa” value was “block of high-voltage activated ICa” and the “inhibition of total ICa (Figure 1B)” value is on record as “about 40%”. Also, the “rank order of potency to inhibit N-type calcium currents” value in data set [3] is listed as “least potent”. Further, in the data set on mice (C57 Bl6), the “side-effects after systemic administration” value is on record as “not accompanied by side-effects such as motor deficits or sedation”. In addition, in the data set with naïve mice (C57Bl/6j) [4], the “Grip strength, Peak tension” value stood at 121 ± 5.7 g and the “Grip strength, Tension/weight” value is 5.7 ± 0.3. Also, in data set [5], the “selectivity for N-type VGCCs over P/Q-type” value was “higher selectivity for N-type VGCCs over the P/Q-type (Cav2.1)” and the “selectivity for N-type calcium channels” value is “high selectivity for N-type calcium channels”. Further, in data set [6], the “ceiling effect” value is “reaching a ceiling effect”; the “effect on automated von Frey and incapacitance measures: incapacitance” value was “both measures appeared to be sensitive to subcutaneous injection of CVID; also recorded: partially reversed”; the “reversal of incapacitance at peak time of action (2 h)” value is listed as “significant reversal”. Besides, in data set [6] (sc), the “dose at which response reaches a ceiling” value came out at 0.2 mg/kg and the “peak time of action” value stood at 2 h. Further, in the data set with naïve mice (C57Bl/6j) [7], the “Rotarod performance, End rate” value amounted to 18 ± 1.4 rpm and the “Rotarod performance, Time to fall” value is given as 40 ± 4.1 s. Moreover, in the data set with rat, the antihyperalgesic effects entry was “dose-dependent antihyperalgesic effects” and the cardiovascular side effects result is “without serious cardiovascular side effects”.
Regarding `C[C@@H]1NC(=O)CNC(=O)[C@H](CCCCN)NC(=O)CNC(=O)[C@H](CCCCN)NC(=O)[C@@H](N)CSSC[C@@H]2NC(=O)[C@@H]3CSSC[C@@H](C(N)=O)NC(=O)[C@H](CCCNC(=N)N)NC(=O)CNC(=O)[C@H](CO)NC(=O)[C@H](CCCNC(=N)N)NC(=O)[C@H](CSSC[C@H](NC(=O)[C@H](CO)NC1=O)C(=O)N[C@@H](CCCNC(=N)N)C(=O)N[C@@H](CCCNC(=N)N)C(=O)N[C@@H]([C@@H](C)O)C(=O)N[C@@H](CO)C(=O)N[C@@H](Cc1ccc(O)cc1)C(=O)N[C@@H](CC(=O)O)C(=O)N3)NC(=O)[C@H](CO)NC(=O)CNC(=O)[C@H]([C@@H](C)O)NC2=O` [CVIE], in the data set with Cav2.2 channel, the “inhibition of Cav2.2 channel currents” value was “potently and reversibly inhibited”. Further, in data set [2], the “recovery from block, 30 min” value is “no recovery was observed” and the “reversibility of ICa block” value was “completely irreversible; also recorded: no recovery was observed”. The “inhibition of excitatory monosynaptic transmission” value in data set [8] was “reversibly inhibited”. Moreover, the “recovery from block in presence of β2a compared to β3 subunits” value in data set [9] was “much greater”. Also, in data set [3], the “maximal inhibition relative to CVID” value is “very similar to that of CVID”, the “potency at ICa inhibition compared to CVID” value is reported as “more than ten-fold compared to CVID” and the “rank order of potency to inhibit N-type calcium currents” value is listed as “most potent”. Further, the “side-effects after systemic administration” value with mice (C57 Bl6) was “not accompanied by side-effects such as motor deficits or sedation”. Besides, in the data set on naïve mice (C57Bl/6j) [4], the “Grip strength, Peak tension” value is given as 121 ± 6.9 g and the “Grip strength, Tension/weight” value is given as 5.5 ± 0.3. In data set [6], the “ceiling effect” value is given as “not seen with CVIE; also recorded: did not appear to reach a ceiling at the highest dose tested”. Besides, in [6] (sc), the “overall significance of AUC data, doses” value came to 2.0 mg/kg; the “potency versus CVID (AUC)” value was “not CVID at any dose”; the “reversal of incapacitance relative to another peptide (CVIE vs CVID)” value was “did not reveal any significant differences; also recorded: not significantly greater than CVID”. For the same compound, in the data set on naïve mice (C57Bl/6j) [7], the “Rotarod performance, End rate” value is 17 ± 1.4 rpm and the “Rotarod performance, Time to fall” value is listed as 36 ± 4.1 s.
On to `CC(C)C[C@@H]1NC(=O)[C@H](CCCNC(=N)N)NC(=O)[C@@H]2CSSC[C@@H]3NC(=O)[C@H](CO)NC(=O)[C@H](C)NC(=O)CNC(=O)[C@H](CCCCN)NC(=O)CNC(=O)[C@H](CCCCN)NC(=O)[C@@H](N)CSSC[C@H](NC(=O)[C@H](CSSC[C@@H](C(N)=O)NC(=O)[C@H](CCCNC(=N)N)NC(=O)CNC1=O)NC(=O)[C@H](CC(=O)O)NC(=O)[C@H](Cc1ccc(O)cc1)NC(=O)[C@H](CO)NC(=O)[C@H]([C@@H](C)O)NC(=O)[C@H](CCCNC(=N)N)NC(=O)[C@H](CCCNC(=N)N)NC3=O)C(=O)N[C@@H]([C@@H](C)O)C(=O)NCC(=O)N[C@@H](CO)C(=O)N2` [CVIF] (H-CKGKGASCRRTSYDCCTGSCRLGRC-NH2; disulfide 1-16, 8-20, 15-25), for which, in the data set with Cav2.2 channel, the “inhibition of Cav2.2 channel currents” value was “potently and reversibly inhibited”. For the same compound, the “reversibility of ICa block” value in data set [2] is given as “partially reversible; also recorded: Partial recovery”. Besides, in [8], the “inhibition of excitatory monosynaptic transmission” value is “reversibly inhibited”. The “recovery from block in presence of β2a compared to β3 subunits” value in data set [9] is on record as “much greater”. Moreover, the “maximal inhibition relative to CVID” value in data set [3] was “very similar to that of CVID”. Moreover, in the data set on naïve mice (C57Bl/6j) [4], the “Grip strength, Peak tension” value is 121 ± 7.7 g and the “Grip strength, Tension/weight” value stood at 5.4 ± 0.4. Further, in the data set on naïve mice (C57Bl/6j) [7], the “Rotarod performance, End rate” value was determined as 17 ± 1.0 rpm and the “Rotarod performance, Time to fall” value came out at 36 ± 3.0 s.

The values are drawn from article PMC3853768 (Molecular Pain, 2013).
